# According to US20090136472A1, “Use of thiazole derivatives and analogues in disorders caused by free fatty acids” (priority 2005, published 2009):
# How the values were obtained:
# MDA-MB-231 cells = assay: Test A cell proliferation assay (FFA/linolenic acid-stimulated, cell cycle analysis by flow cytometry); assay type: cell-based, human; conditions: 24 hours; for inhibition at 10 µM: Homo sapiens, at a concentration of 10 μM, cells in S-phase, read-out: percentage antagonist activity (inhibition of FFA induced cell proliferation); for inhibition at 10 µM / antagonism of free fatty acid stimulated cell proliferation: linolenic acid-stimulated MDA-MB-231 cells; for antagonism of free fatty acid stimulated cell proliferation: S-phase by propidium iodine staining
# Description: Cytomics™ FC500 Flow Cytometer with CXP software (Beckman Coulter) MDA-MB-231 cells MDA-MB-231 cells were cultured in the propagation media D-MEM+1000 mg/L Glucose+GlutaMAX™ 1+Pyruvate supplemented with 10% V/V Foetal Bovine Serum and PEST (100 U/ml penicillin, 100 μg/mL streptomycin). Cells were seeded in 6 well plates to a density of 300000 cells/well in propagation media. After 24 hours, media was replaced with serum free D-MEM media.
# Linolenic acid was diluted in DMSO to a concentration of 100 mM and added to the culture media to a final concentration of 100 μM.
# Compounds were as dissolved in DMSO to a concentrations of 10 mM (Compounds of Examples 95 and 6 (Compound X and Compound Y, respectively)) and 40 mM (Compound of Example 4 (Compound Z)) and added to the culture media to a final concentration of 10 μM (X and Y) and 40 μM (Z) respectively.
# After 24 hours in serum free media DMEM, linolenic acid (to a final concentration of […]) and compounds to be screened for activity were added to a final concentration of 10 μM (Compounds X and Y) and 40 μM (Compound Z) respectively. Final DMSO concentration was kept at 0.2% in all wells. After 24 hours of stimulation, cells were harvested and propidium iodine stained using a CyStain PI absolute T Kit according to manufacturer's recommendations. Cells were subsequently analyzed using a Cytomics™ FC500 Flow Cytometer with CXP software (Beckman Coulter) for cell cycle distribution. Cells were incubated with or without linolenic acid (LA) and the Compounds X, Y and Z for 24 hours at indicated concentrations. Cells in S-phase from untreated sample were set to 100% in each experiment.
# Ob/Ob mice = assay: Test B insulin measurement study in diabetic Ob/Ob mice; assay type: in vivo; conditions: 1 mg/kg intraperitoneally once daily for 2 weeks
# Description: Ultra sensitive rat insulin ELISA kit (Crystal Chen inc) according to manufacturer's recommendations.
# Serum insulin measurements on 4 hour fasted 8-9 week old Ob/Ob mice (Taconic) were performed. Mice were distributed to a vehicle control group (VC) or a Compound Z treatment group, so that mean s-insulin was equal between the groups. 1 mg/kg bodyweight of Compound Z in PBS/1% v/v DMSO and VC groups were injected intraperitoneally once daily for 2 weeks, after which 4 hour fasted serum insulin levels were measured as described above.
smiles,measurement,setting,value
"Cc1ccc(N=C2NC(=O)C(Cc3cccc(C(F)(F)F)c3)S2)cc1 (centres unmarked) [Compound Z, 5-(3-(Trifluoromethyl)benzyl)-2-(p-tolylimino)thiazolidin-4-one]",inhibition at 10 µM,MDA-MB-231 cells,50%
same,antagonism of free fatty acid stimulated cell proliferation,MDA-MB-231 cells,able to antagonize free fatty acid stimulated cell proliferation
same,hyperinsulinemia (4 hour fasted serum insulin level),Ob/Ob mice,attenuated hyperinsulinemia
"O=C1NC(=Nc2ccccn2)SC1Cc1ccc(F)cc1 (centres unmarked) [Compound X, 5-(4-Fluorobenzyl)-2-(pyridin-2-ylimino)thiazolidin-4-one]",effect on the basal proliferation of MDA-MB-231 cells,MDA-MB-231 cells; Compound X 10 μM without linolenic acid,did not exhibit any detectable effect
same,inhibition at 10 µM,MDA-MB-231 cells,70%
same,antagonism of free fatty acid stimulated cell proliferation,MDA-MB-231 cells,able to antagonize free fatty acid stimulated cell proliferation
"O=C1NC(=Nc2ccc(Cl)cc2)SC1Cc1cccc(C(F)(F)F)c1 (centres unmarked) [Compound Y, 5-(3-(Trifluoromethyl)benzyl)-2-(4-chlorophenylimino)thiazolidin-4-one]",inhibition at 10 µM,MDA-MB-231 cells,100%
same,antagonism of free fatty acid stimulated cell proliferation,MDA-MB-231 cells,able to antagonize free fatty acid stimulated cell proliferation
